Assay results as given in ChEMBL document CHEMBL1201862, “PubChem BioAssay data set” (2004).
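Following 48 hours of exposure in 96-well plates, responses at five concentrations were used to interpolate endpoints linearly. Abbreviation: GI50, concentration required for 50% inhibition of growth.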 Activity calls are given as the source filed them. Cut-off read from the data, not from the text of the source: active = GI50 up to about 1.1 µM and inactive = higher.

Legend:
Experiment in all cases: DTP human tumour cell line panel, 48 h
[1] = test system: SK-MEL-5
[2] = test system: TK-10
[3] = test system: OVCAR-5
[4] = test system: CAKI-1
[5] = test system: UO-31
[6] = test system: U-251
[7] = test system: DMS-273
[8] = test system: IGROV-1
[9] = test system: HCT-116
[10] = test system: RPMI-8226
[11] = test system: SR
[12] = test system: HT-29
[13] = test system: OVCAR-3
[14] = test system: HCC 2998
[15] = test system: SK-OV-3
[16] = test system: Malme-3M

Measured: GI50

COC1=C(OC)CCC(/C(C#N)=C/c2ccc(OC)c(OC)c2)=C1
inactive: [1] > 100 µM | [2] 34.2 µM | [3] > 100 µM | [4] > 100 µM | [5] 36.1 µM | [6] 34.5 µM | [7] 49.8 µM | [8] 56.4 µM | [9] > 100 µM | [10] > 100 µM | [11] 66.7 µM | [12] 80.9 µM | [13] > 100 µM | [14] > 100 µM | [15] 26.4 µM

CC(=O)OC1COC(n2ccc3cc(Br)c([N+](=O)[O-])cc32)C(OC(C)=O)C1OC(C)=O (stereo unspecified)
inactive: [1] > 10 µM | [2] 27 µM | [4] 33.7 µM | [5] 12.6 µM | [6] 19.5 µM | [7] 29.9 µM | [8] 30.3 µM | [10] 22.5 µM | [11] 30.4 µM | [16] 24.2 µM | [12] 28.7 µM | [13] 23.8 µM | [14] 24 µM | [15] 31.8 µM

S=c1sc2sc(=S)sc2s1
inactive: [1] > 100 µM | [2] > 100 µM | [3] 20.9 µM | [4] > 100 µM | [5] 30 µM | [6] 21 µM | [7] > 100 µM | [8] > 100 µM | [9] 30.1 µM | [10] 23.1 µM | [11] 29.1 µM | [16] > 100 µM | [12] 29.6 µM | [14] > 100 µM | [15] 19.6 µM

C=C1CN2CCc3c([nH]c4ccccc34)C2CC1CC(=O)N(C)C (stereo unspecified)
inactive: [1] > 309 µM | [2] > 309 µM | [4] > 309 µM | [6] > 309 µM | [7] > 309 µM | [8] > 309 µM | [9] > 309 µM | [10] > 309 µM | [11] > 309 µM | [16] > 309 µM | [12] > 309 µM | [13] > 309 µM | [14] > 309 µM | [15] > 309 µM

Cn1cc(C(=O)c2ccccc2)c2ccccc2c1=O
inactive: [1] > 100 µM | [2] 73.1 µM | [4] 50.6 µM | [7] > 100 µM | [8] > 100 µM | [9] > 100 µM | [10] 94.2 µM | [11] > 100 µM | [16] > 100 µM | [12] > 100 µM | [13] > 100 µM | [14] > 100 µM | [15] > 100 µM
